# Source: US6358885B1, “Substituted phenylheterocyclic herbicides” (Mississippi State University, priority 1992, dated 2002)
# Experiments:
# Assay in all cases: Test B preemergence/postemergence greenhouse plant response rating 0 to 10
# [1] = test system: cocklebur; type: in vivo, Xanthium pensylvanicum; settings: 0 to 10 scale
# Method in brief: (§1)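 Both application timings were run together: seeds got compound preemergence, and established seedlings (two to eighteen cm) got it postemergence. Non-phytotoxic solvent carried the chemical. Ratings are visual, versus controls, at twelve to sixteen days.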
# [2] = test system: bedstraw; type: in vivo, Galium aparine; settings: 0 to 10 scale
# Method in brief: as §1
# [3] = test system: barnyardgrass; type: in vivo, Echinochloa crus-galli; settings: 0 to 10 scale
# Method in brief: as §1
# [4] = test system: wild buckwheat; type: in vivo, Polygonum convolvulus; settings: 0 to 10 scale
# Method in brief: as §1
# [5] = test system: wild oat; type: in vivo, Avena fatua; settings: 0 to 10 scale
# Method in brief: as §1
# [6] = test system: rape; type: in vivo, Brassica napus; settings: 0 to 10 scale
# Method in brief: as §1
# [7] = test system: giant foxtail; type: in vivo, Setaria faberii; settings: 0 to 10 scale
# Method in brief: as §1
# [8] = test system: corn; type: in vivo, Zea mays; settings: 0 to 10 scale
# Method in brief: as §1
# [9] = test system: barley; type: in vivo, Hordeum vulgare; settings: 0 to 10 scale
# Method in brief: as §1
# [10] = test system: purple nutsedge; type: in vivo, Cyperus rotundus; settings: 0 to 10 scale
# Method in brief: as §1
# [11] = test system: sorghum; type: in vivo, Sorghum bicolor; settings: 0 to 10 scale
# Method in brief: as §1
# [12] = test system: cheatgrass; type: in vivo, Bromus secalinus; settings: 0 to 10 scale
# Method in brief: as §1
# [13] = test system: crabgrass; type: in vivo, Digitaria spp.; settings: PREEMERGENCE, 0 to 10 scale
# Method in brief: as §1
# [14] = test system: blackgrass; type: in vivo, Alopecurus myosuroides; settings: 0 to 10 scale
# Method in brief: as §1
# [15] = test system: rice; type: in vivo, Oryza sativa; settings: 0 to 10 scale
# Method in brief: as §1
# [16] = test system: cotton; type: in vivo, Gossypium hirsutum; settings: 0 to 10 scale
# Method in brief: as §1
# [17] = test system: wheat; type: in vivo, Triticum aestivum; settings: 0 to 10 scale
# Method in brief: as §1
# [18] = test system: velvetleaf; type: in vivo, Abutilon theophrasti; settings: 0 to 10 scale
# Method in brief: as §1
# [19] = test system: soybean; type: in vivo, Glycine max; settings: 0 to 10 scale
# Method in brief: as §1
# [20] = test system: lambsquarters; type: in vivo, Chenopodium album; settings: 0 to 10 scale
# Method in brief: as §1
# [21] = test system: sugar beet; type: in vivo, Beta vulgaris; settings: 0 to 10 scale
# Method in brief: as §1
# [22] = test system: chickweed; type: in vivo, Stellaria media; settings: 0 to 10 scale
# Method in brief: as §1
# [23] = test system: morningglory; type: in vivo, Ipomoea hederacea; settings: 0 to 10 scale
# Method in brief: as §1
compound,measurement,setting,value
CC(=O)c1cc(-c2nn3c(c2Cl)CCCC3)c(F)cc1Cl [Compound 45],"Plant response rating, Cocklebur","[1]; POSTEMERGENCE, Rate 50 g/ha",7
same,"Plant response rating, Cocklebur","[1]; POSTEMERGENCE, Rate 200 g/ha",8
same,"Plant response rating, Cocklebur","[1]; PREEMERGENCE, Rate 50 g/ha",0
same,"Plant response rating, Cocklebur","[1]; Rate 200 g/ha, PREEMERGENCE",4
same,"Plant response rating, Bedstraw","[2]; POSTEMERGENCE, Rate 50 g/ha",8
same,"Plant response rating, Bedstraw","[2]; POSTEMERGENCE, Rate 200 g/ha",10
same,"Plant response rating, Bedstraw","[2]; PREEMERGENCE, Rate 50 g/ha",2
same,"Plant response rating, Bedstraw","[2]; Rate 200 g/ha, PREEMERGENCE",4
same,"Plant response rating, Barnyardgrass","[3]; POSTEMERGENCE, Rate 50 g/ha",3
same,"Plant response rating, Barnyardgrass","[3]; POSTEMERGENCE, Rate 200 g/ha",5
same,"Plant response rating, Barnyardgrass","[3]; PREEMERGENCE, Rate 50 g/ha",0
same,"Plant response rating, Barnyardgrass","[3]; Rate 200 g/ha, PREEMERGENCE",5
same,"Plant response rating, Wild buckwheat","[4]; POSTEMERGENCE, Rate 50 g/ha",10
same,"Plant response rating, Wild buckwheat","[4]; PREEMERGENCE, Rate 50 g/ha",3
same,"Plant response rating, Wild buckwheat","[4]; Rate 200 g/ha, POSTEMERGENCE",10
same,"Plant response rating, Wild buckwheat","[4]; Rate 200 g/ha, PREEMERGENCE",10
same,"Plant response rating, Wild oat","[5]; POSTEMERGENCE, Rate 50 g/ha",2
same,"Plant response rating, Wild oat","[5]; PREEMERGENCE, Rate 50 g/ha",2
same,"Plant response rating, Wild oat","[5]; Rate 200 g/ha, POSTEMERGENCE",3
same,"Plant response rating, Rape","[6]; POSTEMERGENCE, Rate 50 g/ha",3
same,"Plant response rating, Rape","[6]; PREEMERGENCE, Rate 50 g/ha",2
same,"Plant response rating, Rape","[6]; Rate 200 g/ha, POSTEMERGENCE",10
same,"Plant response rating, Rape","[6]; Rate 200 g/ha, PREEMERGENCE",7
same,"Plant response rating, Giant foxtail","[7]; POSTEMERGENCE, Rate 50 g/ha",5
same,"Plant response rating, Giant foxtail","[7]; PREEMERGENCE, Rate 50 g/ha",2
same,"Plant response rating, Giant foxtail","[7]; Rate 200 g/ha, POSTEMERGENCE",5
same,"Plant response rating, Giant foxtail","[7]; Rate 200 g/ha, PREEMERGENCE",5
same,"Plant response rating, Corn","[8]; POSTEMERGENCE, Rate 50 g/ha",5
same,"Plant response rating, Corn","[8]; POSTEMERGENCE, Rate 200 g/ha",5
same,"Plant response rating, Corn","[8]; PREEMERGENCE, Rate 50 g/ha",0
same,"Plant response rating, Corn","[8]; Rate 200 g/ha, PREEMERGENCE",1
same,"Plant response rating, Barley","[9]; POSTEMERGENCE, Rate 50 g/ha",4
same,"Plant response rating, Barley","[9]; POSTEMERGENCE, Rate 200 g/ha",3
same,"Plant response rating, Barley","[9]; PREEMERGENCE, Rate 50 g/ha",0
same,"Plant response rating, Barley","[9]; Rate 200 g/ha, PREEMERGENCE",2
same,"Plant response rating, Nutsedge","[10]; PREEMERGENCE, Rate 50 g/ha",0
same,"Plant response rating, Nutsedge","[10]; Rate 200 g/ha, POSTEMERGENCE",6
same,"Plant response rating, Nutsedge","[10]; Rate 200 g/ha, PREEMERGENCE",0
same,"Plant response rating, Sorghum","[11]; POSTEMERGENCE, Rate 50 g/ha",4
same,"Plant response rating, Sorghum","[11]; PREEMERGENCE, Rate 50 g/ha",0
same,"Plant response rating, Sorghum","[11]; Rate 200 g/ha, POSTEMERGENCE",5
same,"Plant response rating, Sorghum","[11]; Rate 200 g/ha, PREEMERGENCE",1
same,"Plant response rating, Cheatgrass","[12]; POSTEMERGENCE, Rate 50 g/ha",4
same,"Plant response rating, Cheatgrass","[12]; POSTEMERGENCE, Rate 200 g/ha",6
same,"Plant response rating, Cheatgrass","[12]; PREEMERGENCE, Rate 50 g/ha",2
same,"Plant response rating, Cheatgrass","[12]; Rate 200 g/ha, PREEMERGENCE",2
same,"Plant response rating, Crabgrass",[13]; Rate 50 g/ha,0
same,"Plant response rating, Crabgrass",[13]; Rate 200 g/ha,6
same,"Plant response rating, Blackgrass","[14]; POSTEMERGENCE, Rate 50 g/ha",6
same,"Plant response rating, Blackgrass","[14]; POSTEMERGENCE, Rate 200 g/ha",3
same,"Plant response rating, Blackgrass","[14]; PREEMERGENCE, Rate 50 g/ha",2
same,"Plant response rating, Blackgrass","[14]; Rate 200 g/ha, PREEMERGENCE",3
same,"Plant response rating, Rice","[15]; POSTEMERGENCE, Rate 50 g/ha",6
same,"Plant response rating, Rice","[15]; PREEMERGENCE, Rate 50 g/ha",0
same,"Plant response rating, Rice","[15]; Rate 200 g/ha, POSTEMERGENCE",6
same,"Plant response rating, Rice","[15]; Rate 200 g/ha, PREEMERGENCE",3
same,"Plant response rating, Cotton","[16]; POSTEMERGENCE, Rate 50 g/ha",10
same,"Plant response rating, Cotton","[16]; POSTEMERGENCE, Rate 200 g/ha",10
same,"Plant response rating, Cotton","[16]; PREEMERGENCE, Rate 50 g/ha",0
same,"Plant response rating, Cotton","[16]; Rate 200 g/ha, PREEMERGENCE",0
same,"Plant response rating, Wheat","[17]; POSTEMERGENCE, Rate 50 g/ha",3
same,"Plant response rating, Wheat","[17]; PREEMERGENCE, Rate 50 g/ha",2
same,"Plant response rating, Wheat","[17]; Rate 200 g/ha, POSTEMERGENCE",8
same,"Plant response rating, Wheat","[17]; Rate 200 g/ha, PREEMERGENCE",5
same,"Plant response rating, Velvetleaf","[18]; POSTEMERGENCE, Rate 50 g/ha",9
same,"Plant response rating, Velvetleaf","[18]; PREEMERGENCE, Rate 50 g/ha",2
same,"Plant response rating, Velvetleaf","[18]; Rate 200 g/ha, POSTEMERGENCE",10
same,"Plant response rating, Velvetleaf","[18]; Rate 200 g/ha, PREEMERGENCE",0
same,"Plant response rating, Soybean","[19]; POSTEMERGENCE, Rate 50 g/ha",8
same,"Plant response rating, Soybean","[19]; PREEMERGENCE, Rate 50 g/ha",0
same,"Plant response rating, Soybean","[19]; Rate 200 g/ha, POSTEMERGENCE",8
same,"Plant response rating, Soybean","[19]; Rate 200 g/ha, PREEMERGENCE",2
same,"Plant response rating, Lambsquarter","[20]; POSTEMERGENCE, Rate 50 g/ha",10
same,"Plant response rating, Lambsquarter","[20]; PREEMERGENCE, Rate 50 g/ha",10
same,"Plant response rating, Lambsquarter","[20]; Rate 200 g/ha, POSTEMERGENCE",10
same,"Plant response rating, Lambsquarter","[20]; Rate 200 g/ha, PREEMERGENCE",10
same,"Plant response rating, Sugar beet","[21]; POSTEMERGENCE, Rate 50 g/ha",7
same,"Plant response rating, Sugar beet","[21]; PREEMERGENCE, Rate 50 g/ha",7
same,"Plant response rating, Sugar beet","[21]; Rate 200 g/ha, POSTEMERGENCE",10
same,"Plant response rating, Sugar beet","[21]; Rate 200 g/ha, PREEMERGENCE",9
same,"Plant response rating, Chickweed","[22]; POSTEMERGENCE, Rate 50 g/ha",8
same,"Plant response rating, Chickweed","[22]; POSTEMERGENCE, Rate 200 g/ha",7
same,"Plant response rating, Chickweed","[22]; PREEMERGENCE, Rate 50 g/ha",3
same,"Plant response rating, Chickweed","[22]; Rate 200 g/ha, PREEMERGENCE",2
same,"Plant response rating, Morningglory","[23]; POSTEMERGENCE, Rate 50 g/ha",8
same,"Plant response rating, Morningglory","[23]; PREEMERGENCE, Rate 50 g/ha",2
same,"Plant response rating, Morningglory","[23]; Rate 200 g/ha, POSTEMERGENCE",9
same,"Plant response rating, Morningglory","[23]; Rate 200 g/ha, PREEMERGENCE",4
